{
  "source": "patent US10940179B2",
  "about": "“Therapeutic compositions for the treatment of dry eye disease” (SCHEPENS EYE RESEARCH INSTITUTE, priority 2010, dated 2021)",
  "key": {"[1]": {"system": "IL-17 (Th17 cells) and IFN-γ (Th1 cells)", "assay": "Real-time PCR of inflammatory cytokines in draining lymph nodes of DED mice", "assay_type": "in vivo, mouse", "details": "treated vs untreated DED mice", "excerpt": "(§1) Eight to ten week-old female C57BLI6 mice (Charles River Laboratory, Wilmington, Mass.) were used in accordance with the standards in the ARVO Statement for the Use of Animals in Ophthalmic and Vision Research. The research protocol was approved by the Schepens Eye Research Institute Animal Care and Use Committee. Dry eye was induced in murine eyes using a Controlled Environment Chamber (CEC) which exposes the mice to high-flow desiccated air. To achieve maximum ocular surface dryness, the conditions in CEC were supplemented with topical application of 1% atropine sulfate (Falcon Pharma, Fort Worth, Tex.) twice for the first 48 hours and subcutaneous injections of 0.1 ml of 5 mg/ml of scopolamine hydrobromide (Sigma-Aldrich, St. Louis, Mo.) three times a day, for the entire duration of the experiment.\nFive mice (10 eyes) were included in each group. […]\n(§2) Anti-VEGF-C antibodies (VGX-100; Vegenics Limited, Australia) were administered intraperitonealy daily from day 1 to day 10 to DED mice. Mice were assessed clinically using corneal fluorescent staining. […]\n(§3) Real time PCR was performed to quantify expression of different VEGF growth factors (VEGF-A, VEGF-C, VEGF-D) and their receptors (VEGFR-2, VEGFR-3) in the cornea at days 6, 10 and 14 (FIG. 8) and to determine the levels of proinflammatory cytokines."}, "corneal lymphatics": {"system": "corneal lymphatics", "assay": "Corneal lymphangiogenesis in DED mice (CD31/LYVE-1 staining, morphometry)", "parameters": "species or system mouse", "details": "in vivo blockade of VEGF-C", "excerpt": "(§4) Eight to ten week-old female C57BLI6 mice (Charles River Laboratory, Wilmington, Mass.) were used in accordance with the standards in the ARVO Statement for the Use of Animals in Ophthalmic and Vision Research. The research protocol was approved by the Schepens Eye Research Institute Animal Care and Use Committee. Dry eye was induced in murine eyes using a Controlled Environment Chamber (CEC) which exposes the mice to high-flow desiccated air. […]\n(§5) Freshly excised corneas were washed in PBS, fixed in acetone for 15 minutes and then double stained with CD31 and LYVE-1 as described previously. To analyze infiltration of CD11b^+/LYVE-1 cells, corneas from three mice from each group were taken and cells were counted in 5-6 areas in the periphery ([…] area from the limbus) of each cornea in a masked fashion, using epifluorescence microscope (model E800; Nikon, Melville, N.Y.) at 40× magnification. The mean number of cells was obtained by averaging the total number of cells in all the areas studied and the result was expressed as the number of positive cells per mm^2.\nMorphology of lymphatics was analyzed using an automated image analysis program written with Matlab (The Mathworks, Inc., Natick, Mass.). […] The resultant isolated lymphatic vessels were analyzed morphologically using two metrices, Lymphatic Area (LA) and Lymphatic Caliber (LC). […]"}, "[2]": {"system": "IL-1α, IL-1β, IL-6, IL-17", "assay": "Real-time PCR of proinflammatory cytokines in conjunctiva of DED mice", "assay_type": "in vivo, mouse", "excerpt": "as §1\n(§6) Five mice (10 eyes) were included in each group. Two corneas were pooled together to equal as one sample and stored at −80° C. in Trizol (Invitrogen, Carlsbad, Calif.; catalog No. 15596026) until future use. Total RNA was isolated from these corneas using the RNeasy microkit (Qiagen, Valencia, Calif.; catalog No. 74004). Equal amounts of RNA were used to synthesize cDNA using SuperScript™ III Reverse Trancriptase (Invitrogen, Carlsbad, Calif.; catalog No. 18080) according to the manufacturer's recommendations. Real-Time PCR was performed using FAM-MGB dye labeled predesigned primers (Applied Biosystem, Foster City, Calif.) for GAPDH (assay ID.Mm999999 15_gl), VEGF-A (Mm00437304_ml), VEGF-C (Mrn00437313_ml), VEGF-D (Mm00438965_ml), VEGFR-2 (Mm00440099_ml), VEGFR-3 (Mm00433337_ml). 2.5 μl of cDNA was loaded in each well and assays were performed in duplicate. The GAPDH gene was used as the endogenous reference for each reaction. The results were normalized by the cycle threshold (CT) of GAPDH and the relative mRNA level in the normal mice was used as the normalized control.\n(§7) Anti-VEGF-C antibodies (VGX-100; Vegenics Limited, Australia) were administered intraperitonealy daily from day 1 to day 10 to DED mice. Mice were assessed clinically using corneal fluorescent staining. Tissues from cornea, conjunctiva and draining lymph nodes were examined for cellular and molecular pathological changes.\nas §3"}, "CD11b+ cells": {"system": "CD11b+ cells", "assay": "Enumeration of CD11b+ cells in DED corneas (immunohistochemistry)", "assay_type": "in vivo, mouse", "excerpt": "as §4, §5, §2"}, "DED mice": {"system": "DED mice", "assay": "Corneal fluorescein staining / clinical signs in experimental dry eye murine model", "assay_type": "in vivo, mouse", "details": "for Clinical signs of DED / disease severity: anti-VEGF-C-treated vs untreated (saline) group, daily i.p.", "excerpt": "as §1, §7\nCorneal lymphatics play an important role in mediating the corneal inflammation in dry eyes. Experiments: To validate this, inhibition of corneal neolymphangiogenesis was performed in a well characterized mouse model of DED described above. To see if inhibition of corneal neolymphangiogenesis could decrease ocular surface inflammation, anti-VEGF-C antibodies were administered i.p. daily from day −1 to day 10 to DED mice and assessed clinically using corneal fluorescein staining.\nMethods (as described previously): Induction of Dry Eye Disease. Experimental Dry Eye Murine Model. Assessment of Corneal Surface: Corneal Fluorescein Staining. Immunohistochemistry: Monocyte/macrophage marker—CD11b; Pan-endothelial marker—CD31; Lymphatic endothelial marker—LYVE-1; Blood vessels: CD31^hi/LYVE-1; Lymph vessels: CD31^lo/LYVE-l^hi. Morphometry of Lymphangiogenesis: Automated image analysis program written using Mat lab. Lymphatic Area (LA)—total surface area of the lymphatic vessels when projected into the plane of the image. Lymphatic Caliber (LC)—measure of the diameters of the lymphatic vessels.\nAnti-VEGF-C antibody and treatment regimen. Experimental design: Three groups: Normal, DE group treated with IP normal Saline (Untreated) and DE group treated with anti-VEGF-C antibody (VGX-100; a gift from Vegenics, Australia). Daily IP application of anti-VEGF-C antibody/Normal saline from day −1 to day 13. Dose: […] (20 mg/kg) in […] of Normal Saline."}, "VEGF-C, -D, R3": {"system": "VEGF-C, -D, R3", "assay": "Real-time PCR of pro-lymphangiogenic growth factors and receptors in DE corneas", "assay_type": "in vivo, mouse", "details": "DED mice, VEGF-C blockade", "excerpt": "as §1\nas §6, with “The results were normalized by the cycle threshold (CT) of GAPDH and the relative mRNA level in the normal mice was used as the normalized control.” left out\nas §3"}, "[3]": {"details": "DED mice, VEGF-C blockade (summary)"}},
  "data": [
    {"substance": "VGX-100: human anti-VEGF-C monoclonal antibody produced by hybridoma ATCC PTA-4095; heavy/light chains SEQ ID NO: 34/35; from Vegenics", "values": [
      {"measurement": "Induction of T-cell mediated autoimmune response in draining lymph nodes (IL-17, IFN-γ by real-time PCR)", "setting": "[1]", "result": "significantly decreased induction"},
      {"measurement": "Corneal lymphangiogenesis / lymphatic growth", "setting": "corneal lymphatics", "result": "suppresses corneallymphangiogenesis"},
      {"measurement": "Corneal lymphangiogenesis / lymphatic growth", "setting": "corneal lymphatics; listed as anti-VEGF-C", "result": "suppression of lymphatic growth"},
      {"measurement": "mRNA expression levels of proinflammatory cytokines in the conjunctiva", "setting": "[2]; [3]", "result": "decrease"},
      {"measurement": "IL-1α expression in conjunctiva (real-time PCR)", "setting": "[2]; treated vs untreated DED mice", "result": "significantly decreased expression"},
      {"measurement": "IL-1β expression in conjunctiva (real-time PCR)", "setting": "[2]; treated vs untreated DED mice", "result": "significantly decreased expression"},
      {"measurement": "IL-6 expression in conjunctiva (real-time PCR)", "setting": "[2]; treated vs untreated DED mice", "result": "significantly decreased expression"},
      {"measurement": "IL-17 expression in conjunctiva (real-time PCR)", "setting": "[2]; treated vs untreated DED mice", "result": "significantly decreased expression"},
      {"measurement": "Decrease of infiltration of CD11b+ cells in DED corneas", "setting": "CD11b+ cells; DED corneas, day 14", "result": 30, "unit": "%"},
      {"measurement": "Corneal infiltration of CD11b+ cells", "setting": "CD11b+ cells; [3]", "result": "decrease"},
      {"measurement": "Corneal epitheliopathy", "setting": "DED mice; VEGF-C blockade", "result": "decrease"},
      {"measurement": "Clinical signs of DED / disease severity", "setting": "DED mice", "result": "ameliorates clinical signs of DED"},
      {"measurement": "Clinical signs of DED / disease severity", "setting": "DED mice; listed as anti-VEGF-C", "result": "significant decrease in disease severity"},
      {"measurement": "Clinical signs of DED / disease severity", "setting": "DED mice; listed as anti-VEGF-C Ab", "result": "ameliorates clinical signs of DED"},
      {"measurement": "Corneal fluorescein staining (CFS) score", "setting": "DED mice; days 5, 9 and 13, vs untreated group, daily IP 400 µg (20 mg/kg) in 100 µl saline", "result": "significantly decreased"},
      {"measurement": "Expression of VEGF-C in DE corneas", "setting": "VEGF-C, -D, R3", "result": "decrease"},
      {"measurement": "Expression of VEGF-D in DE corneas", "setting": "VEGF-C, -D, R3", "result": "decrease"},
      {"measurement": "Expression of VEGFR-3 (R3) in DE corneas", "setting": "VEGF-C, -D, R3", "result": "decrease"}
    ]}
  ]
}
